# Laboratory results published in article PMC9743148 (Annals of oncology : official journal of the European …, 2020).
# System: patients with advanced solid tumors
# Assay: Treatment-emergent adverse events
# Format: in vivo, human
# [1] = Combined t.i.w. cohorts (n = 42)
compound,measurement,setting,value
C=CC(=O)N1CC[C@H](n2nc(C#Cc3cc(OC)cc(OC)c3)c3c(N)ncnc32)C1 [futibatinib],"Dry skin TEAE, Grade 4",[1],0 (0) n (%)
same,"Fatigue TEAE, Any grade",[1],7 (17) n (%)
same,"Fatigue TEAE, Grade 1",[1],2 (5) n (%)
same,"Fatigue TEAE, Grade 2",[1],5 (12) n (%)
same,"Fatigue TEAE, Grade 3",[1],0 (0) n (%)
same,"Fatigue TEAE, Grade 4",[1],0 (0) n (%)
same,"Headache TEAE, Any grade",[1],7 (17) n (%)
same,"Headache TEAE, Grade 1",[1],6 (14) n (%)
same,"Headache TEAE, Grade 2",[1],1 (2) n (%)
same,"Headache TEAE, Grade 3",[1],0 (0) n (%)
same,"Headache TEAE, Grade 4",[1],0 (0) n (%)
same,"Hypercalcemia TEAE, Any grade",[1],5 (12) n (%)
same,"Hypercalcemia TEAE, Grade 1",[1],1 (2) n (%)
same,"Hypercalcemia TEAE, Grade 2",[1],1 (2) n (%)
same,"Hypercalcemia TEAE, Grade 3",[1],3 (7) n (%)
same,"Hypercalcemia TEAE, Grade 4",[1],0 (0) n (%)
same,"Hyperphosphatemia TEAE, Any grade",[1],21 (50) n (%)
same,"Hyperphosphatemia TEAE, Grade 1",[1],7 (17) n (%)
same,"Hyperphosphatemia TEAE, Grade 2",[1],11 (26) n (%)
same,"Hyperphosphatemia TEAE, Grade 4",[1],0 (0) n (%)
same,"Hyperphosphatemia TEAE, grade 3",[1],3 (7) n (%)
same,"Hypomagnesemia TEAE, Any grade",[1],5 (12) n (%)
same,"Hypomagnesemia TEAE, Grade 1",[1],4 (10) n (%)
same,"Hypomagnesemia TEAE, Grade 2",[1],1 (2) n (%)
same,"Hypomagnesemia TEAE, Grade 3",[1],0 (0) n (%)
same,"Hypomagnesemia TEAE, Grade 4",[1],0 (0) n (%)
same,"Hyponatremia TEAE, Any grade",[1],5 (12) n (%)
same,"Hyponatremia TEAE, Grade 1",[1],1 (2) n (%)
same,"Hyponatremia TEAE, Grade 2",[1],0 (0) n (%)
same,"Hyponatremia TEAE, Grade 3",[1],4 (10) n (%)
same,"Hyponatremia TEAE, Grade 4",[1],0 (0) n (%)
same,"Nausea TEAE, Any grade",[1],12 (29) n (%)
same,"Nausea TEAE, Grade 1",[1],11 (26) n (%)
same,"Nausea TEAE, Grade 2",[1],0 (0) n (%)
same,"Nausea TEAE, Grade 3",[1],1 (2) n (%)
same,"Nausea TEAE, Grade 4",[1],0 (0) n (%)
same,"Onycholysis TEAE, Any grade",[1],5 (12) n (%)
same,"Onycholysis TEAE, Grade 1",[1],4 (10) n (%)
same,"Onycholysis TEAE, Grade 2",[1],1 (2) n (%)
same,"Onycholysis TEAE, Grade 3",[1],0 (0) n (%)
same,"Onycholysis TEAE, Grade 4",[1],0 (0) n (%)
same,"Pyrexia TEAE, Any grade",[1],5 (12) n (%)
same,"Pyrexia TEAE, Grade 1",[1],4 (10) n (%)
same,"Pyrexia TEAE, Grade 2",[1],0 (0) n (%)
same,"Pyrexia TEAE, Grade 3",[1],1 (2) n (%)
same,"Pyrexia TEAE, Grade 4",[1],0 (0) n (%)
same,"Rash TEAE, Any grade",[1],5 (12) n (%)
same,"Rash TEAE, Grade 1",[1],5 (12) n (%)
same,"Rash TEAE, Grade 2",[1],0 (0) n (%)
same,"Rash TEAE, Grade 3",[1],0 (0) n (%)
same,"Rash TEAE, Grade 4",[1],0 (0) n (%)
same,"Stomatitis TEAE, Any grade",[1],5 (12) n (%)
same,"Stomatitis TEAE, Grade 1",[1],2 (5) n (%)
same,"Stomatitis TEAE, Grade 2",[1],1 (2) n (%)
same,"Stomatitis TEAE, Grade 3",[1],2 (5) n (%)
same,"Stomatitis TEAE, Grade 4",[1],0 (0) n (%)
same,"Treatment discontinuation because of TEAE, Any grade",[1],1 (2) n (%)
same,"Treatment discontinuation because of TEAE, Grade 1",[1],0 (0) n (%)
same,"Treatment discontinuation because of TEAE, Grade 2",[1],0 (0) n (%)
same,"Treatment discontinuation because of TEAE, Grade 3",[1],1 (2) n (%)
same,"Treatment discontinuation because of TEAE, Grade 4",[1],0 (0) n (%)
same,"Urinary tract infection TEAE, Any grade",[1],5 (12) n (%)
same,"Urinary tract infection TEAE, Grade 1",[1],0 (0) n (%)
same,"Urinary tract infection TEAE, Grade 2",[1],4 (10) n (%)
same,"Urinary tract infection TEAE, Grade 3",[1],1 (2) n (%)
same,"Urinary tract infection TEAE, Grade 4",[1],0 (0) n (%)
same,"Vomiting TEAE, Any grade",[1],9 (21) n (%)
same,"Vomiting TEAE, Grade 1",[1],5 (12) n (%)
same,"Vomiting TEAE, Grade 2",[1],3 (7) n (%)
same,"Vomiting TEAE, Grade 3",[1],1 (2) n (%)
same,"Vomiting TEAE, Grade 4",[1],0 (0) n (%)
same,"Hyperphosphatemia TEAE, grade 3",combined q.d. cohorts,16%
same,"Hyperphosphatemia TEAE, any grade","combined q.d. cohorts, 30 of 44 patients",68%
same,"Hyperphosphatemia TEAE, grade 3",combined t.i.w. cohorts,7%
same,"Hyperphosphatemia TEAE, any grade","combined t.i.w. cohorts, 21 of 42 patients",50%
same,Patients with grade ≥3 TEAEs,overall population,> 50%
same,Grade 3 hyponatremia TEAE,overall population (n = 86),7%
same,Hyperphosphatemia leading to dose reductions,overall population (n = 86),6%
same,Hyperphosphatemia leading to dosing interruptions,overall population (n = 86),17%
same,Patients with grade 3 TEAEs,overall population (n = 86),48%
same,Patients with grade 4 TEAEs,overall population (n = 86),6%
same,Patients with treatment-related grade 3 AEs,overall population (n = 86),30%
same,TEAEs leading to treatment discontinuations,overall population (n = 86),3%
same,Treatment-related deaths,overall population (n = 86),No treatment-related deaths
